Assay results as given in US20170319562A1, “Compositions and Methods for Extended Therapy with Aminopyridines” (Acorda Therapeutics, Inc., priority 2009, published 2017).

Tested on: patients with multiple sclerosis
Assay: MS-F202 Phase 2 double-blind placebo-controlled dose-comparison study
Type: in vivo, human
Parameters: change in overall Ashworth score, Mean: scale not given here
Method: The Phase 2, dose-ranging study (MS-F202) was a double-blind, randomized, placebo-controlled, parallel group study with dose levels of 4-aminopyridine-SR of 10 mg, 15 mg or 20 mg b.i.d. Patients were titrated to their randomized dose over two weeks; and the fixed-dose treatment phase was 12 weeks in duration. The prospectively defined primary efficacy variable was the percent change from baseline in average walking speed on the T25FW over the last three visits on the assigned stable dose. Other secondary efficacy variables were the other MSFC assessments (9-hole peg test and PASAT 3″), MSFC combined score, LEMMT, the 12-item Multiple Sclerosis Walking Scale (MSWS-12), Multiple Sclerosis Quality of Life Inventory (MSQLI), Ashworth spasticity score, Clinician Global Impression (CGI), and Subject Global Impression (SGI).
In the study MS-F202, the primary efficacy variable was the percent change from baseline in average walking speed measured using the T25FW. The following sections provide details on the different assessments.
A total of 206 patients with multiple sclerosis were randomized and 195 completed treatment (50/52 on 4-aminopyridine-SR 10 mg b.i.d., 49/50 on 15 mg b.i.d., 51/57 on 20 mg b.i.d. and 45/47 on placebo). The prospectively defined primary efficacy variable was the percent change from baseline in average walking speed on the T25FW over the last three visits on the assigned dose (Visits 7-9, the post-titration, stable dose period). The secondary efficacy variable was response, defined as a 20% or greater improvement in walking speed during the 12-week stable-dose double-blind treatment period (i.e. measurements at Visits 7-9). Other secondary efficacy variables were the other MSFC assessments (9-hole peg test and PASAT 3″), MSFC combined score, LEMMT, MSWS-12, MSQLI, Ashworth spasticity score, CGI, and SGI.
This example provides an embodiment of a method of treating subjects with a sustained release 4-aminopyridine formulation and a Responder analysis of the present invention. This was a Phase 2, double-blind, placebo-controlled, parallel group, 20-week treatment study in 206 subjects diagnosed with multiple sclerosis. This study was designed to investigate the safety and efficacy of three dose levels of 4-aminopyridine-SR, 10 mg b.i.d., 15 mg b.i.d., and 20 mg b.i.d. in subjects with clinically definite multiple sclerosis. The primary efficacy endpoint was an increase, relative to baseline, in walking speed, on the Timed 25 Foot Walk. Secondary efficacy measurements included lower extremity manual muscle testing in four groups of lower extremity muscles (hip flexors, knee flexors, knee extensors, and ankle dorsiflexors); the 9-Hole Peg Test and Paced Auditory Serial Addition Test (PASAT 3″); the Ashworth score for spasticity; Spasm Frequency/Severity scores; as well as a Clinician's (CGI) and Subject's (SGI) Global Impressions, a Subject's Global Impression (SGI), the Multiple Sclerosis Quality of Life Inventory (MSQLI) and the 12-Item Multiple Sclerosis Walking Scale (MSW S-12).
At the first visit (Visit 0), subjects were to enter into a two-week single-blind placebo run-in period for the purpose of establishing baseline levels of function. At Visit 2 subjects were to be randomized to one of four treatment groups (Placebo or 4-aminopyridine-SR 10 mg, 15 mg, 20 mg) and begin two weeks of double-blind dose-escalation in the active drug treatment groups (B, C and D). Group A were to receive placebo throughout the study. Subjects in the 10 mg (Group B) arm of the study took a dose of 10 mg approximately every 12 hours during both weeks of the escalation phase. The 15 mg (Group C) and 20 mg (Group D) dose subjects took a dose of 10 mg approximately every 12 hours during the first week of the escalation phase and titrated up to 15 mg b.i.d. in the second week. Subjects were to be instructed to adhere to an “every 12 hour” dosing schedule. […]

[1] = Fampridine Non-responders, 1st stbl
[2] = Fampridine Non-responders, 2nd stbl
[3] = Fampridine Non-responders, 3rd stbl
[4] = Fampridine Non-responders, titration
[5] = Fampridine Responders, 1st stbl
[6] = Fampridine Responders, 2nd stbl
[7] = Fampridine Responders, 3rd stbl
[8] = Fampridine Responders, titration

SMILES: Nc1ccncc1 [4-aminopyridine]
- rate of serious AE's (10 mg bid): 0%
- rate of serious AE's (15 mg bid): 10%
- rate of serious AE's (20 mg bid): 12%
- mean reduction from baseline in Overall Ashworth Score, range over visits (4-aminopyridine Responders, double-blind): −0.18 to −0.11 units
- change in overall Ashworth score, Mean [1]: −0.08
- percent change in LEMMT, Mean [1]: 0.10
- percent change in Walking Speed, Mean [1]: 3.5
- change in overall Ashworth score, Mean [2]: −0.07
- percent change in LEMMT, Mean [2]: 0.09
- percent change in Walking Speed, Mean [2]: −0.2
- change in overall Ashworth score, Mean [3]: 0.00
- percent change in LEMMT, Mean [3]: 0.10
- percent change in Walking Speed, Mean [3]: −6.5
- change in overall Ashworth score, Mean [4]: −0.16
- percent change in LEMMT, Mean [4]: 0.12
- percent change in Walking Speed, Mean [4]: 8.3
- change in overall Ashworth score, Mean [5]: −0.18
- percent change in LEMMT, Mean [5]: 0.09
- percent change in Walking Speed, Mean [5]: 24.6
- change in overall Ashworth score, Mean [6]: −0.11
- percent change in LEMMT, Mean [6]: 0.09
- percent change in Walking Speed, Mean [6]: 29.0
- change in overall Ashworth score, Mean [7]: −0.18
- percent change in LEMMT, Mean [7]: 0.17
- percent change in Walking Speed, Mean [7]: 27.3
- change in overall Ashworth score, Mean [8]: −0.14
- percent change in LEMMT, Mean [8]: 0.18
- percent change in Walking Speed, Mean [8]: 27.4
- post hoc Responder rate (consistently faster walking speeds on drug) (combined/pooled 4-aminopyridine-SR groups): approximately 37%
